Experiment: xn = mol fraction of the nth substance listed
Conditions: 100 kPa, x2 = 0.571

O=C1c2ccccc2C(=O)C1(O)O + CCCC[N+](CCCC)(CCCC)CCCC.O=S(=O)([O-])O
Conditions	electrical conductivity [S/m]	speed of sound [m/s]	viscosity [mPa·s]
293.15 K	–	2074.6	–
298.15 K	–	2026.2	–
303.15 K	–	1974.8	–
308.15 K	0.0001	1920.7	–
313.15 K	0.0002	1859	–
318.15 K	0.0003	1802.5	–
323.15 K	0.0006	1740.4	48000
333.15 K	0.0018	1629.2	15800
338.15 K	–	–	11000

From a compilation of properties of binary mixtures (doi:10.1016/j.molliq.2020.112644)
